Test results from PMC5651845, “A New Generation of Arachidonic Acid Analogues as Potential Neurological Agent Targeting Cytosolic Phospholipase A2” (Scientific Reports, 2017).

Assays:
[1] = system: ROS production in BV-2 cells; assay: ROS assay (CM-H2DCFDA) in LPS-stimulated BV-2 cells; format: cell-based, murine; conditions: 2, 10 and 20 μM, 2 µg/mL LPS, 14 h
Procedure: CM-H2DCFDA was used as the main detection reagent for ROS for this study. Being a chloromethyl derivative of the conventional H2DCFDA, it is better retained in the cells due to the reaction of its chloromethyl group with intracellular thiol species. In addition, esterase present in the cells would convert the acetate group found in CM-H2DCFDA into carboxylic acid, further retaining it in the cell. To investigate the ROS production by BV-2 cell stimulated with LPS, intracellular ROS was measured 14 h post-stimulation with CM-H2DCFDA fluorescence. A 2-fold increase in ROS was detected as compared to the control. […] This could be because the activation of ROS production might not be solely due to the inflammatory pathway mechanism involving cPLA2. It was reported in previous studies that a multitude of several other processes producing ROS may be at work[51],[52].
20,000 BV-2 cells were seeded into a 96-well plate in 100 uL of culture medium and allowed to grow overnight. When a 90% cell confluency was observed, lipopolysaccharide pre-dissolved in culture medium to achieve a concentration of 2 μg/mL was added to each well of the 96 well. Different concentrations of test compounds in DMSO were added to the LPS containing medium and was then transferred to the cells. […] Fluorescence detection was done by exciting the dye at 485 nm and detection of emission at 525 nm. […]

[2] = biological target: T1, recombinant cPLA2 (Homo sapiens, UniProt P47712); assay: EnzChek phospholipase A2 fluorogenic assay (IC50); format: biochemical
T1 construct: purchased US Biological P4074-03R
T1 sequence (P47712 1-749): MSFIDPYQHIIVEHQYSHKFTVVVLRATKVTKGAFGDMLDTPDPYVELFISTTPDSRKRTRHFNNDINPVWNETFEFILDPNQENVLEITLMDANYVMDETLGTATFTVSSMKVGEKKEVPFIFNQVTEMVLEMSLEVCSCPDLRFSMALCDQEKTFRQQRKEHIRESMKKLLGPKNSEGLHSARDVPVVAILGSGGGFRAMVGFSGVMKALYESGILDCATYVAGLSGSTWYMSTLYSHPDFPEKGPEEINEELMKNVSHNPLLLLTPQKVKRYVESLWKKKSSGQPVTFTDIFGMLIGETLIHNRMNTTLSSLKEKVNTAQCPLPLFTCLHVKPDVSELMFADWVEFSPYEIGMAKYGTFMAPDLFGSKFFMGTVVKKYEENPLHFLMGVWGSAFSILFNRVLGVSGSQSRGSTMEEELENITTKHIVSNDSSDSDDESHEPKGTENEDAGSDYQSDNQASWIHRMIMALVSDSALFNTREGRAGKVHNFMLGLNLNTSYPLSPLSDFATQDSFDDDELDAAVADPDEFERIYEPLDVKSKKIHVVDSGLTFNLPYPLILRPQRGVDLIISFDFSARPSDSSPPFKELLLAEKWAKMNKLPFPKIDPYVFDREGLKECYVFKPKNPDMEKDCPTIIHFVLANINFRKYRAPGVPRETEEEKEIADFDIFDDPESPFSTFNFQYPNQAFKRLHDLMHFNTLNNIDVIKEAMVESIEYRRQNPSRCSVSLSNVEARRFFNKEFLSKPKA
Procedure: The assay was conducted as described above. Instead of adding a fixed concentration of the test compound, various concentrations of compound were reconstituted in DMSO. 48 μL of 1X phospholipase A2 reaction buffer were added into each well of a 96-wells plate. This was followed by addition of 1 μL of recombinant cPLA2 (P4074-03R, US Biological) and 1 μL of the respective concentration of the test compound dissolved in DMSO. The reaction was initiated by adding 50 μL of the substrate solution and incubating at room temperature for 1 h. Fluorescence was measured using a Varioskan plate reader by exciting at 485 nm, while fluorescence emission was detected at 515 nm. Positive control was performed when 1 μL of test compound was replaced by vehicle DMSO. IC50 was expressed as the mean value of duplicate wells from three experiments.

[3] = system: BV-2 cells; assay: MTS cell proliferation assay on BV-2 cells; format: cell-based, murine; conditions: 10 μM, 48 h and 72 h, vs vehicle control
Procedure: To explore whether the inhibitors are cytotoxic, MTS assay were conducted on BV-2 cells, a murine microglial cell line derived from post-natal mouse cerebella, and HEK293T cells that are derived from human embryonic kidney. Both cell types were treated with 10 μM of 1a, 2g and 2i for 48 h and 72 h (Fig. 3A,B). Dimethyl sulfoxide (DMSO) vehicle control was also included as the compounds were dissolved in DMSO.
Cells were plated on a 96-wells plate and grown for 24 h to a density of 8000 cells per well for both HEK293T and BV-2 cells. Cells were cultured at 37 °C under a 5% CO2 environment in 100 μL of culture medium. Thereafter, the compound of interest dissolved in culture medium at a concentration of 10 μM was replaced into each well. DMSO was added as vehicle in the control group. 3 biological replicates were performed. The plates were then incubated at 37 °C with 5% CO2 for 48 h and 72 h. At each individual time point, 20 μL of CellTiter 96® AQueous One Solution (MTS reagent) was added into each well and re-incubated at 37 °C with 5% CO2 without light for 3 h. Colorimetric readings were taken using a Varioskan plate reader at 490 nm and analyzed. Three independent biological repeats with four technical replicates were performed.

IC50 [2]: 2.9 ± 0.2 µM | fold stronger cPLA2 inhibition than 1a (from IC50) ([2]; relative to 1a): 5.5 fold
Compound: CCCCC/C=C\C/C=C\C/C=C\C/C=C\CCCCC(=O)Nc1cccc(C(=O)O)c1 [2i]
ROS level, concentration dependence [1]: dose-dependent decrease in ROS | cytotoxicity (MTS) on BV-2 cells [3]: no significant toxic effects
